The values that follow come from patent US20150307614A1, “Enhanced immunological responses” (Duke University, priority 2009, published 2015).

Data set [1] has as its system newly-diagnosed, EGFRvIII+ GBM.
Procedure: In patients with newly-diagnosed, EGFRvIII+ GBM, after resection and radiation/TMZ, patients received CDX-110 vaccinations biweekly×3, then monthly until tumor progression in combination with TMZ (200 mg/m^2×5/28 days). […] The others received saline in a double-blinded fashion.
The subject of a further data set is human TRegs. In words: Daclizumab on human TRegs in vitro. Type of data set: cell-based.
Data set [2] is described as follows: TMZ-induced lymphopenia in patients with GBM. The following applies: after the first cycle (150-200 mg/m2/5 d), n=10. Type of data set: in vivo, human. As for the experimental part: (§1) It also induces transient, Grade 3 lymphopenia (<500 cells/uL) in 70% of patients with GBM after the first cycle (150-200 mg/m2/5 d) with nadirs occurring 14-21 days after treatment (n=10). TMZ treatment also leads to an increase in the proportion of TRegs in the peripheral blood (unpublished). Despite this, we have been able to induce and maintain potent EGFRvIII-specific humoral and cellular immune responses in patients with GBM receiving TMZ. Thus, we evaluated TMZ for its capacity to induce homeostatic proliferation and to enhance antigen-specific immune responses in a murine model. Markedly elevated levels of antigen-specific T-cells could be achieved and maintained in mice receiving antigen-specific vaccination after TMZ-induced lymphopenia when compared to normal hosts.

The next data set has as its system OVA-specific T-cells. In words: Antigen-specific vaccination after TMZ-induced lymphopenia in mice, with or without anti-IL-2Rα. Format: in vivo. The following applies: TMZ pre-treatment. As for the experimental part:
as §1

Where [3] appears, read: after expansion post vaccination.

In the case of “daclizumab: commercially available humanized IL-2Rα-specific antibody”, in data set [1] (both arms), the “OS (overall survival)” value was “has not been reached” and the “TTP (time to progression)” value was “has not been reached”. For the same compound, the “overall CD8+ or CD4+ T-cell counts” value in data set [1] (daclizumab 1 mg/Kg×1, preliminary analysis n=4) is recorded as “without reducing”. In data set [1] (daclizumab arm, preliminary analysis n=4, p=0.01 t-test), the EGFRvIII-specific immune responses result is “enhanced”. Moreover, in data set [1] (human, in vivo), the “titer of cytotoxic EGFRvIII-specific IgG1 isotype antibodies” value is recorded as “enhanced”. Moreover, in data set [1] (reduction, daclizumab 1 mg/Kg×1 at first vaccine, preliminary analysis n=4, p=0.011 t-test), the “Treg (CD4+CD25+CD45RO+FOXP3+) numbers, change from baseline” value stood at 82.4±7.1%. Also, in the data set on human TRegs (in vitro), the “effector T-cell function” value is reported as “increase” and the “human TRegs” value was “reduction”. In the data set with human TRegs (preliminary in vitro studies with human TRegs in the presence of daclizumab), the “CD4+ T-cell responses” value is “enhancement”.
As to `Cn1nnc2c(C(N)=O)ncn2c1=O` [TMZ, temozolomide], in data set [2], the “patients with transient Grade 3 lymphopenia (<500 cells/uL)” value stood at 70% and the “time of lymphopenia nadirs after treatment” value fell in the range of 14 to 21 days. For the same compound, in the data set with OVA-specific T-cells (4 weeks post-vaccination), the “OVA-specific T-cells, frequency of circulating CD8+ T-cells” value is 21.18%. Moreover, in the data set on OVA-specific T-cells (setting [3]), the “OVA-specific T-cells, absolute count after vaccination” value is recorded as 42.61 cells/uL and the “OVA-specific T-cells, frequency of circulating CD8+ T-cells after vaccination” value was 10.64%. In the data set on OVA-specific T-cells (starting count), the “OVA-specific T-cells, absolute count, start of expansion” value came to 3.41 cells/uL blood. Also, the “OVA-specific T-cells, frequency of circulating CD8+ T-cells, start of expansion” value with OVA-specific T-cells (starting frequency) turned out to be 0.40%.
